{"source": "paper PMC9655717", "about": "“New Molecules of Diterpene Origin with Inhibitory Properties toward α-Glucosidase” (International Journal of Molecular Sciences, 2022)", "key": {"[1]": {"target": "T1, α-glucosidase (Sigma G0660) (Saccharomyces cerevisiae, UniProt P53341)", "T1 construct": "purchased Sigma G0660", "T1 sequence (P53341 whole entry)": "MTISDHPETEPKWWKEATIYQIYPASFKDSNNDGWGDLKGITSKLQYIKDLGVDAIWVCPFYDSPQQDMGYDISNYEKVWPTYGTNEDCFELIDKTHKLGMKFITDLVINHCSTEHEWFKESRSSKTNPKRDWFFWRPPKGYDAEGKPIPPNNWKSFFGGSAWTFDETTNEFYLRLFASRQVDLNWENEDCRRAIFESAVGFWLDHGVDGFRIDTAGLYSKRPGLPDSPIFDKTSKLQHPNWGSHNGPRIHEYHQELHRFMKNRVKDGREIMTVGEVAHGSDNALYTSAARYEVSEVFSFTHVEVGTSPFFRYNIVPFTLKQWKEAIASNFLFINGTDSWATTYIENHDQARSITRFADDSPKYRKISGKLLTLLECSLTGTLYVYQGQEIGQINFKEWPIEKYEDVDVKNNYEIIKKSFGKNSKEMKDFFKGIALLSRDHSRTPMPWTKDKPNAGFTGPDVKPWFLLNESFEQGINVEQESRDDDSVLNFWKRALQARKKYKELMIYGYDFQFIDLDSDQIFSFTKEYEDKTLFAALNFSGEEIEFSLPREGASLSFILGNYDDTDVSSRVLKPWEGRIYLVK", "experiment": "Kinetic study of α-glucosidase inhibition (Michaelis-Menten, pNPG)", "format": "biochemical, yeast", "description": "The method’s principle based on the hydrolyzed reaction of 4-nitrophenyl-α-D-glucopiranoside with α-glucosidase enzyme into yellow 4- […]\nThe kinetic assay was performed according to the method using a series of […]\nμL of 100 mM phosphate buffer (pH 6.8), 25 μL of α-glucosidase (0.4 U/mL, Sigma G0660) were pre-incubated for 10 min at 37 °C. DMSO was added to the respective control wells to a 0.64% final concentration. The reaction was initiated with the addition of 25 μL of p-nitrophenyl-[…] (pNPG, Sigma N1377) solution in a range of final concentrations. The amount of released p-nitrophenol from pNPG was immediately measured at 410 nm with Infinite M200 PRO (Tecan, Austria). Conversion of optical density to nM p-nitrophenol was performed with a standard curve. Reaction rates were determined from the linear parts of kinetic curves and fitted to the Michaelis-Menten equation. The assay was performed in triplicate wells and two independent […]\nLigands were prepared with MarvinSketch 18.8.0 (ChemAxon Ltd.). Ligands were hydrogenized and conformations with minimal potential energy were obtained using the MMFF94 force field. The homology model of S. cerevisiae α-glucosidase was obtained with SWISS-MODEL as described previously. Protein and ligand structures followed standard preparation procedure using AutoDocTools 1.5.6. We used AutoDock Vina 1.1.211 to perform all docking runs. The grid box with 70×80×80 Å dimensions was centered on the enzyme molecule to include the entire 3D space around the protein. The top-score binding poses were used in subsequent analysis. […]\n(Dassault Systemes Biovia Corp.).\nDPPH (0.1 mM) was diluted in methanol. 200 μL of this solution was added to 1.3 μL of various concentrations of compounds in DMSO (256.0, 64.0, 16.0, and 4.0 μg/mL). The mixture was performed by a 96-well plate at 25 °C in 30 min. […]"}, "[2]": {"experiment": "DPPH radical scavenging assay", "details": "DPPH 0.1 mM in methanol, 25°C, 30 min", "description": "DPPH radical scavenging assay as described by Ha. The hydrogen atom donating ability of the plant extractives was determined by the decolorization of methanol solution of 2,2-diphenyl-1-picrylhydrazyl (DPPH). DPPH produces purple color in methanol solution and fades to shades of yellow color in the presence of antioxidants. […]\nDPPH (0.1 mM) was diluted in methanol. 200 μL of this solution was added to 1.3 μL of various concentrations of compounds in DMSO (256.0, 64.0, 16.0, and 4.0 μg/mL). The mixture was performed by a 96-well plate at 25 °C in 30 min. Then, absorbance was determined by Epoch™ Microplate Spectrophotometer (at 517 nm). The percentage of DPPH quenching activity was computed by the following formula:\nInhibitory percentage SC (%) = [(Ao - A1)/Ao] × 100. where AO was defined as the absorbance of control reaction, and A1 represented for the absorbance in the presence of test or standard sample. Each experiment was repeated three times. Quercetin was used as a reference compound. […]"}}, "data": [{"smiles": "C#CCOC(=O)C1(C)CCCC2(C)C1CCC13C=C(C(C)C)C(CC12)c1c(O)cc2c(C(=O)OC)c(C)[nH]c2c13", "note": "(centres unmarked) [Compound 45, Methyl 7-propynyl 1-hydroxy-13-isopropyl-7,10a,2′-trimethyl-5,6,6b,7,8,9,10,10a,10b,11,12,13-dodecahydro-12,4b-ethenophenanthro [2,1-g]indole-7,1′-dicarboxylate]", "values": [{"measurement": "Vmax", "setting": "[1]; Compound 45 at 25 μM", "value": 2.277, "unit": "nM/min"}, {"measurement": "Vmax", "setting": "[1]; Compound 45 at 50 μM", "value": 2.221, "unit": "nM/min"}, {"measurement": "Vmax", "setting": "[1]; Compound 45 at 100 μM", "value": 2.249, "unit": "nM/min"}, {"measurement": "mechanism of α-glucosidase inhibition", "setting": "[1]; Michaelis-Menten nonlinear regression", "value": "competitive inhibitor"}, {"measurement": "IC50 values, antioxidant test (DPPH)", "setting": "[2]", "value": "> 256", "unit": "µg/mL"}]}]}
